According to patent publication US20050004126A1 (priority 2001, published 2005):
Read-outs that look alike come from different tables or passages of the source.

Columns and labels:
[1] = biological target: MMP-13CD (catalytic domain of collagenase 3) (Homo sapiens, UniProt P45452); assay: Thiopeptolide hydrolysis assay, MMP-13;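 note: inhibition of enzymatic thiopeptolide substrate cleavage (100 µM) in pH 6.0 MES buffer with CaCl2 and DTNB, comparing hydrolysis with versus without inhibitor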
[2] = biological target: T1, MMP-1FL (full-length interstitial collagenase) (Homo sapiens, UniProt P03956); assay: Thiopeptolide hydrolysis assay, MMP-1; assay type: biochemical; details: read-out: MMP01 IC50
T1 sequence (P03956 100-469): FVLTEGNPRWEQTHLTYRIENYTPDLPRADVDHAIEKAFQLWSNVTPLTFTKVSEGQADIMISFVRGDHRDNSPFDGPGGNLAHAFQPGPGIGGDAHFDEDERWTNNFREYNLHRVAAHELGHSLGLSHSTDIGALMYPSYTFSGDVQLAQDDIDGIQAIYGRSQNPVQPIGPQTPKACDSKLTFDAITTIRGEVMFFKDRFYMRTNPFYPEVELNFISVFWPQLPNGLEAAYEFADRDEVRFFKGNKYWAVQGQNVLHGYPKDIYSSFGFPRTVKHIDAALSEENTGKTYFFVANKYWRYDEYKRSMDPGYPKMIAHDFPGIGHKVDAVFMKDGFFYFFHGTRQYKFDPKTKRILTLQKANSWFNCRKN
Experimental: They measure the amount by which a test compound reduces the hydrolysis of a thiopeptolide substrate caused by a matrix metalloproteinase enzyme.
Thiopeptolide substrates show virtually no decomposition or hydrolysis in the absence of a matrix metalloproteinase enzyme. A typical thiopeptolide substrate commonly utilized for assays is Ac-Pro-Leu-Gly-thioester-Leu-Leu-Gly-OEt. A 100 μL assay mixture will contain 50 mM of 2-morpholinoethane sulfonic acid monohydrate (MES, pH 6.0) 10 mM CaCl2, 100 μM thiopeptolide substrate, and 1 mM 5,5′-dithio-bis-(2-nitro-benzoic acid) (DTNB). […] The change in absorbance at 405 nm is monitored on a Thermo Max microplate reader (moleucular Devices, Menlo Park, Calif.) at room temperature (22° C.). […] Assays are carried out with and without matrix metalloproteinase inhibitor compounds, and the amount of hydrolysis is compared for a determination of inhibitory activity of the test compounds.

[3] = biological target: MMP-3CD (catalytic domain of stromelysin) (Homo sapiens, UniProt P08254); assay: Thiopeptolide hydrolysis assay, MMP-3; assay type: biochemical; details: read-out: MMP03 IC50;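 note: inhibition of thiopeptolide substrate (100 µM) cleavage by the MMP-3 catalytic domain, detected with DTNB at pH 6.0 with CaCl2, hydrolysis compared against runs lacking inhibitor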
Sequence of MMP-3CD (catalytic domain of stromelysin) (P08254 100-272 limits assumed): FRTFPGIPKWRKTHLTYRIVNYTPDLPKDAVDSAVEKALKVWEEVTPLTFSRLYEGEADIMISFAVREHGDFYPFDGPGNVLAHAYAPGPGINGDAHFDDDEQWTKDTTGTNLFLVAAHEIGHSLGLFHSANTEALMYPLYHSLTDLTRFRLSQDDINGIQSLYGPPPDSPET

Row | SMILES | IC50 ([1]; MMP13 IC50 (nM), Table II) | IC50 ([2]; Table II) | IC50 ([3]; Table II) | IC50 ([1]; MMP13 IC50 (μM), Table 1b) | IC50 ([2]; Table 1b) | IC50 ([3]; Table 1b)
1 | COC(=O)c1ccc(Cn2c(=O)c(C)c3sc(C(=O)NCc4cccc(F)c4)cn3c2=O)cc1 |  |  |  | 0.0715 µM | > 30 µM | 19 µM
2 | COC(=O)c1ccc(Cn2c(=O)c(C)c3sc(C(=O)NCc4ccc(F)cc4)cn3c2=O)cc1 |  |  |  | 0.018 µM | > 100 µM | 17 µM
3 | COC(=O)c1ccc(Cn2c(=O)c(C)c3sc(C(=O)NCc4ccc(OC)cc4)cn3c2=O)cc1 |  |  |  | 0.0106 µM | > 100 µM | 65 µM
4 | Cc1c(=O)n(Cc2ccc(C(=O)O)cc2)c(=O)n2cc(C(=O)NCc3ccc(F)cc3)sc12 |  |  |  | 0.0022 µM | > 100 µM | 68 µM
5 | O=C(OCc1ccccc1)C1C[S+]([O-])c2cc(=O)n(Cc3ccccc3)c(=O)n21 (stereo not drawn) |  |  |  | 0.072 µM | > 100 µM | 23 µM
6 | O=C(NCc1ccncc1)C1Cn2c(cc(=O)n(Cc3ccccc3)c2=O)S1 (stereo not drawn) |  |  |  | 0.59 µM | > 100 µM | > 100 µM
7 | COc1ccc(CNC(=O)c2cn3c(=O)n(Cc4ccccc4)c(=O)c(C=O)c3s2)cc1 |  |  |  | 0.0224 µM | > 100 µM | 11 µM
8 | Cc1c(=O)n(Cc2ccccc2)c(=O)n2cc(C(=O)NCc3ccccc3)sc12 |  |  |  | 0.094 µM | > 100 µM | 51 µM
9 | COc1cccc(CNC(=O)c2cn3c(=O)n(Cc4ccccc4)c(=O)c(C)c3s2)c1 |  |  |  | 0.006 µM | > 30 µM | 22 µM
10 | Cc1c(=O)n(Cc2ccccc2)c(=O)n2cc(C(=O)NCc3ccc(Cl)c(Cl)c3)sc12 |  |  |  | 0.265 µM | > 30 µM | 20 µM
11 | COc1ccc(CNC(=O)c2cn3c(=O)n(Cc4ccccc4)c(=O)c(C)c3s2)cn1 |  |  |  | 0.0175 µM | > 30 µM | > 10 µM
12 | Cc1c(=O)n(Cc2ccccc2)c(=O)n2cc(C(=O)NCc3ccc(F)cc3)sc12 |  |  |  | 0.0245 µM | > 30 µM | > 100 µM
13 | Cc1cccc(CNC(=O)c2cn3c(=O)n(Cc4ccccc4)c(=O)c(C)c3s2)c1 |  |  |  | 0.025 µM | > 100 µM | 19 µM
14 | Cc1c(=O)n(Cc2ccccc2)c(=O)n2cc(C(=O)NCc3ccc(C(F)(F)F)cc3)sc12 |  |  |  | 2.21 µM | > 30 µM | > 100 µM
15 | COc1ccc(CNC(=O)c2cn3c(=O)n(Cc4ccccc4)c(=O)c(C)c3s2)cc1F |  |  |  | 0.025 µM | > 100 µM | 12 µM
16 | Cc1c(=O)n(Cc2ccccc2)c(=O)n2cc(C(=O)NCc3cccc(F)c3)sc12 |  |  |  | 0.12 µM | > 30 µM | > 30 µM
17 | Cc1ccc(CNC(=O)c2cn3c(=O)n(Cc4ccccc4)c(=O)c(C)c3s2)cc1 |  |  |  | 0.225 µM | > 30 µM | 19 µM
18 | Cc1c(=O)n(Cc2ccccc2)c(=O)n2cc(C(=O)NCc3ccc(Cl)cc3)sc12 |  |  |  | 0.0869 µM | > 30 µM | 23 µM
19 | Cc1c(=O)n(Cc2ccccc2)c(=O)n2cc(C(=O)NCc3ccc(F)c(F)c3)sc12 |  |  |  | 0.029 µM | > 100 µM | > 30 µM
20 | COc1ccc(CNC(=O)c2cn3c(=O)n(Cc4ccccc4)c(=O)c(C)c3s2)cc1 |  |  |  | 0.0217 µM | > 30 µM | 16 µM
21 | Cc1c(=O)n(Cc2ccccc2)c(=O)n2cc(C(=O)NCc3ccc(OC(F)(F)F)cc3)sc12 |  |  |  | 0.815 µM | > 30 µM | > 100 µM
22 | O=C(NCc1ccc(Cl)c(Cl)c1)c1cn2c(=O)n(Cc3ccc(Cl)cc3)c(=O)cc2s1 |  |  |  | 4.3 µM | > 30 µM | > 100 µM
23 | Cc1c(=O)n(Cc2ccc(C#N)cc2)c(=O)n2cc(C(=O)NCc3ccc(F)cc3)sc12 |  |  |  | 0.023 µM | > 100 µM | 25 µM
24 | Cc1c(=O)n(Cc2ccccc2)c(=O)n2cc(C(=O)NCc3cccnc3)sc12 |  |  |  | 0.225 µM | > 100 µM | > 30 µM

The next lines start with results.

Row | IC50 ([1]; MMP13 IC50 (nM), Table II) | IC50 ([2]; Table II) | IC50 ([3]; Table II) | SMILES | IC50 ([1]; MMP13 IC50 (μM), Table 1b) | IC50 ([2]; Table 1b) | IC50 ([3]; Table 1b)
25 | 0.077 µM | > 100 µM | > 100 µM | COc1cccc(CNC(=O)c2cccc(C(=O)NCc3ccc(C(=O)O)cc3)c2)c1 |  |  | 
26 | 0.935 µM | > 100 µM | > 100 µM | COc1cccc(CNC(=O)c2cccc(C(=O)NCc3cccc(N)c3)c2)c1 |  |  | 
